Assay results from patent US20250145961A1, “GENERATING BONE MARROW ORGANOIDS” (The University of Birmingham, priority 2022, published 2025).

Experiments:
Format in all cases: cell-based, human
bone marrow organoids = test: TGFβ-induced fibrosis of bone marrow organoids (immunofluorescence, qRT PCR); settings: for TGFβ-induced collagen deposition / TGFβ-induced αSMA expression: bone marrow organoids stimulated with TGFβ, N=4 and 3 respectively, Kruskal-Wallis with multiple comparisons
From the text: FIG. 7: Treatment of organoids with TGFβ induced fibrosis of the organoids, modelling bone marrow fibrosis seen in patients. […] Increase of signal in these images is indicative of treatment inducing classic markers of fibrosis. […] Finally, we confirmed the utility of this model to screen for potential inhibitors of bone marrow fibrosis. […] (N=4 and 3 respectively, significance testing with Kruskal-Wallis with multiple comparisons).
To model myelofibrosis (MF), we treated bone marrow organoids with Transforming Growth Factor β (TGFβ, Peprotech) at various concentrations for 72 hours. Treated organoids were maintained in this media before collection via pasteurette and fixation for immunofluorescence (whole organoids or embedded sections), or centrifugation for RNA extraction and subsequent quantitative Real Time Polymerase Chain Reaction (qRT PCR assessment of changes in gene expression). RNA extraction was performed using the Qiagen RNAEasy micro kit to the manufacturer's instructions.
qRT-PCR was performed on an Applied Biosystems 7500 Fast Real Time PCR System. Primers were obtained from Integrated DNA Technologies (IDT) as pre-validated PrimeTime qPCR primers. Reactions were prepared from lug of isolated RNA converted to cDNA with the High Capacity cDNA Reverse Transcription Kit (Applied Biosystems) under manufacturer recommended thermal cycling conditions. Synthesised cDNA was diluted 5-fold and stored at −20° C. until required.
A master mix was prepared for each qPCR reaction which was made up of 10 μl TaqMan® Universal Primer MasterMix (thermos), 1 μl of forward and reverse primers, and 2 μl of cDNA at a final concentration of 5 ng/mL. Calculations for fold changes in expression were performed using the ΔΔCT method, with human GAPDH used as a housekeeping gene, and undifferentiated iPSC used as controls for expression levels.
Immunofluorescence was performed using a Zeiss LSM880 confocal microscope (25×0.8 LD LCI plan apo 0.8 dual immersion objective). Samples were prepared first by fixation in 10% formalin, before 3×5 min successive washes with PBS. Samples were then blocked overnight in a detergent blocking solution comprised of 2% goat serum (Thermo), 1% Bovine Serum Albumin (BSA) in 50 mL of PBS. 250 μl of Triton X100 and Tween-20 (Sigma) were added, as well as 500 μl sodium deoxycholate (Sigma) to permeabilise samples and encourage antibody preparation. Primary antibody incubations were performed overnight at 4° C., before 4×5-minute successive washes in PBS. Samples were then incubated overnight once more at 4° C. in secondary antibody mixes: DAPI for nuclear labelling, Alexa-488, Alxea-568, and Alexa-647 (Thermo) depending on the species mix of antibodies present.

MF-patient organoids = test: Bone marrow organoids engrafted with CD34+ cells from patients with myelofibrosis, screen of potential therapies (immunofluorescence of paraffin embedded sections); settings: organoids seeded with MF patient cells for 14 days, treatment at day 7 post engraftment, 0.1 and 1 uM, vs DMSO treated
Procedure: FIG. 12: Organoids engrafted with CD34^+ cells from patients with myelofibrosis can be used to screen potential therapies in a patient specific approach. Bone marrow organoids were seeded with cells from patients with myelofibrosis for 14 days in total, with pharmacological interventions staged at day 7 post engraftment. […] Samples were also treated with the inhibitor SB431542, the BET bromodomain inhibitor JQ1, and the current clinical treatment for myelofibrosis ruxolitinib (at 0.1 and 1 uM respectively). […] (B) Representative immunofluorescence imaging of paraffin embedded sections.
Cells were isolated from cryopreserved peripheral blood or bone marrow mononuclear cells and stained with CellVue Claret Far Red Fluorescent Cell Linker Mini Kit for General Membrane Labeling (Sigma Aldrich, Cat #MINCLARET-1KT) following the instructions provided by the manufacturer. Organoids were seeded with 5000 cells per wells and cultured for 8-14 days in StemPro. On collection day, organoids were fixed for imaging or digested for assessment by flow cytometry or RNA extraction and qRT PCR.
Sections were blocked using 2% Goat Serum (Thermo Fisher Scientific, Cat #31872) 1% Bovine Serum Albumin (BSA) (Sigma, Cat #A9418) prior to primary antibody labelling with antibody diluted in 1% BSA, sequential PBS washes, and finally secondary labelling with AlexaFluor conjugates. […]

organoid endothelium = test: Addition of VEGFC to the organoid growth factor cocktail, specialisation of organoid endothelium
From the text: FIG. 4: Addition of VEGFC induces specialisation of organoid endothelium to resemble bone marrow sinusoidal endothelium. The protocol thus far generated an organoid producing the key lineages of the central human bone marrow. However, bone marrow sinusoidal endothelium, is a highly specialised for regulating haematopoeitic cell behaviours.
FIG. 5: VEGFC induces development of CD34+ sinusoidal vascular network in organoids. […] Immunofluorescence images show significant staining of the vessels in the VEGFA+C treated sample when compared to VEGFA. (B) Close association of CD41+ megakaryocytes with vessels in the organoids. […] (C) CD41+ megakaryocytes are shown forming pro-platelet extensions in sections of BM organoids.
Once fully polymerised, 3D cultures were supplemented in Phase III sprouting medium which was comprised of APELII medium supplemented with 5% Foetal Bovine Serum (FBS), 5 U/mL Heparin Sulfate, 50 ng VEGFA, 10 ng each Interleukin 3 (IL3) and Interleukin 6 (IL6), as well as 25 ng each of SCF, Flt3, Thrombopoietin (TPO), Erythropoietin (EPO), Granulocyte Colony Stimulating Factor (G-CSF) (Stem Cell Technologies), FGF2, and BMP4. Cells were maintained in this media formulation until d12, with media changes every 72 hours. From d5 onwards, media changes are performed as 60:40 splits fresh: conditioned medium. […]

Molecule: Cc1sc2c(c1C)C(c1ccc(Cl)cc1)=N[C@@H](CC(=O)OC(C)(C)C)c1nnc(C)n1-2 [JQ1]
- TGFβ-induced collagen deposition (bone marrow organoids): significantly reduced
- TGFβ-induced αSMA expression (bone marrow organoids): significantly reduced
- COL1A1 level, immunofluorescence (MF-patient organoids): significant reductions
- αSMA level, immunofluorescence (MF-patient organoids): significantly reduced

Molecule: NC(=O)c1ccc(-c2nc(-c3ccc4c(c3)OCO4)c(-c3ccccn3)[nH]2)cc1 [SB431542]
- TGFβ-induced collagen deposition (bone marrow organoids): significantly reduced
- TGFβ-induced αSMA expression (bone marrow organoids): significantly reduced

Molecule: TGFβ
- expression of α-smooth muscle actin (α-SMA) and collagen I (COL1A1), staining (bone marrow organoids; 72-hours of stimulation, compared to an untreated control): increase in the expression
- canonical fibrosis markers by qRT PCR (bone marrow organoids; various concentrations of TGFβ for 72 hours): dose dependent increase

B1: VEGFC: Vascular Endothelial Growth Factor C (Stem Cell Technologies), growth factor supplemented into medium (protein, UniProt P49767 112-227, looked up)
Vascular endothelial growth …: AHYNTEILKSIDNEWRKTQCMPREVCIDVGKEFGVATNTFFKPPCVSVYRCGGCCNSEGLQCMNTSTSYLSKTLFEITVPLSQGPKPVTISFANHTSCRCMSKLDVYRQVHSIIRR
- CD34 expression of organoid vessels, immunofluorescence (organoid endothelium; VEGFA+C treated compared to VEGFA): induces vessels in the organoid that maintain the expression of CD34
- expression of adhesion molecules and hematopoietic regulatory factors (VEGFR3, VCAM1, VLA4, FGF4, CXCR4) in endothelial cells (organoid endothelium; VEGFC added to VEGFA, compared to VEGFA or VEGFC alone): improved the expression
